The numbers were not newly measured in paper PMC11390321 (Cancer chemotherapy and pharmacology, 2024), which cites them from elsewhere.

SMILES strings stand for the structures.

The conditions of this series: tumor-bearing mice, orally administered; cited from earlier work.

As for `C[C@@H]1COCCN1c1cc(C2([S@](C)(=N)=O)CC2)nc(-c2cc[nH]c3nccc2-3)n1` [ceralasertib], the “bone marrow exposure relative to plasma” value is listed as 4.60 fold.
